Measurements published in ChEMBL document CHEMBL1201862, “PubChem BioAssay data set” (2004).
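Results reflect a 48-hour exposure of cells in 96-well plates to compound at five concentrations. Here, GI50 denotes the concentration required for 50% inhibition of growth.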 The source made the active and inactive calls. Cut-off read from the data, not from the text of the source: active = GI50 up to about 1.1 µM and inactive = higher.

Experiments:
Experiment in all cases: inhibition of tumour cell growth, NCI panel, 48 h
TK-10 = test system: TK-10
NCI-H226 = test system: NCI-H226
PC-3 = test system: PC-3
MOLT-4 = test system: MOLT-4
CCRF-CEM = test system: CCRF-CEM
HT-29 = test system: HT-29
SN12C = test system: SN12C
NCI-H23 = test system: NCI-H23
OVCAR-8 = test system: OVCAR-8
NCI/ADR-RES = test system: NCI/ADR-RES
T47D = test system: T47D
SR = test system: SR
SNB-75 = test system: SNB-75
SF-268 = test system: SF-268
SF-295 = test system: SF-295
RXF 393 = test system: RXF 393
MDA-MB-231 = test system: MDA-MB-231
UACC-62 = test system: UACC-62
K562 = test system: K562
LOX IMVI = test system: LOX IMVI

Measured: GI50

CCOC(=O)n1c2ccccc2c(=O)n1CCO
inactive: TK-10 > 100 µM | NCI-H226 > 100 µM | PC-3 > 100 µM | MOLT-4 > 100 µM | CCRF-CEM > 100 µM | HT-29 > 100 µM | SN12C > 100 µM | NCI-H23 > 100 µM | OVCAR-8 > 100 µM | NCI/ADR-RES > 100 µM | T47D 7.45 µM | SR > 100 µM | SNB-75 28.8 µM | SF-268 > 100 µM | SF-295 > 100 µM | RXF 393 24.2 µM | MDA-MB-231 > 100 µM | UACC-62 > 100 µM | K562 > 100 µM

Cc1c(/N=N/c2ccc(Cl)cc2)c(-c2ccccc2)n(C2OC(CO)C(O)C(O)C2O)c(=S)c1C#N (stereo not given)
inactive: TK-10 21.2 µM | PC-3 10.6 µM | MOLT-4 8.04 µM | CCRF-CEM 10 µM | HT-29 16.6 µM | SN12C 16.6 µM | NCI-H23 10.7 µM | NCI/ADR-RES 13.6 µM | T47D 19.1 µM | SR 20.6 µM | SNB-75 18.7 µM | SF-268 22.2 µM | SF-295 24.9 µM | RXF 393 15 µM | MDA-MB-231 20.3 µM | UACC-62 13.4 µM | LOX IMVI 18.2 µM | K562 13.6 µM

COc1ccc(CNc2ccn(C3OC(CO)C(O)C3O)c(=O)n2)cc1 (stereo not given)
inactive: TK-10 > 100 µM | NCI-H226 > 100 µM | PC-3 > 100 µM | MOLT-4 45.1 µM | CCRF-CEM 31.3 µM | HT-29 46.3 µM | SN12C > 100 µM | NCI-H23 88.7 µM | OVCAR-8 > 100 µM | NCI/ADR-RES > 100 µM | T47D 25.4 µM | SR > 100 µM | SF-268 > 100 µM | SF-295 > 100 µM | RXF 393 > 100 µM | MDA-MB-231 > 100 µM | UACC-62 74.5 µM | LOX IMVI > 100 µM | K562 34.8 µM

CCOP(=O)(OCC)C(NC(=O)C(C(F)(F)F)C(F)(F)F)c1ccccc1 (stereo not given)
inactive: TK-10 > 100 µM | PC-3 > 100 µM | MOLT-4 67.3 µM | CCRF-CEM 36.6 µM | HT-29 > 100 µM | SN12C > 100 µM | NCI-H23 > 100 µM | OVCAR-8 > 100 µM | NCI/ADR-RES > 100 µM | T47D 84.1 µM | SR 59.6 µM | SNB-75 > 100 µM | SF-268 > 100 µM | SF-295 > 100 µM | RXF 393 > 100 µM | MDA-MB-231 > 100 µM | UACC-62 > 100 µM | LOX IMVI > 100 µM | K562 61.2 µM

Cn1c(-c2ccccc2)cc2c3ccsc3c3ccsc3c21
inactive: TK-10 21.3 µM | NCI-H226 > 100 µM | PC-3 > 100 µM | MOLT-4 92.7 µM | HT-29 > 100 µM | SN12C > 100 µM | NCI-H23 > 100 µM | OVCAR-8 > 100 µM | NCI/ADR-RES > 100 µM | T47D 6.03 µM | SR 39.1 µM | SNB-75 > 100 µM | SF-268 > 100 µM | SF-295 > 100 µM | RXF 393 > 100 µM | MDA-MB-231 > 100 µM | UACC-62 > 100 µM | LOX IMVI > 100 µM

CC(C)(C)OC(=O)NCC(=O)N1CCN(C(=O)CNC(=O)OC(C)(C)C)CC1
inactive: TK-10 > 100 µM | NCI-H226 > 100 µM | PC-3 > 100 µM | MOLT-4 > 100 µM | CCRF-CEM > 100 µM | HT-29 > 100 µM | SN12C > 100 µM | NCI-H23 > 100 µM | OVCAR-8 > 100 µM | NCI/ADR-RES > 100 µM | T47D > 100 µM | SR > 100 µM | SF-268 18.7 µM | SF-295 > 100 µM | MDA-MB-231 > 100 µM | UACC-62 > 100 µM | LOX IMVI > 100 µM | K562 > 100 µM

NC(CCC(=O)O)(CCC(=O)O)CCC(=O)O
inactive: TK-10 > 100 µM | NCI-H226 > 100 µM | PC-3 > 100 µM | MOLT-4 > 100 µM | CCRF-CEM > 100 µM | HT-29 > 100 µM | SN12C > 100 µM | NCI-H23 > 100 µM | OVCAR-8 > 100 µM | NCI/ADR-RES > 100 µM | T47D > 100 µM | SR > 100 µM | SNB-75 > 100 µM | SF-268 > 100 µM | SF-295 > 100 µM | RXF 393 > 100 µM | MDA-MB-231 > 100 µM | UACC-62 > 100 µM | K562 > 100 µM

O=C(O)c1ccccn1 [2-PICOLINIC ACID]
inactive: TK-10 > 100 µM | NCI-H226 > 100 µM | PC-3 > 100 µM | MOLT-4 > 100 µM | CCRF-CEM > 100 µM | HT-29 > 100 µM | SN12C > 100 µM | NCI-H23 > 100 µM | OVCAR-8 > 100 µM | NCI/ADR-RES > 100 µM | T47D > 100 µM | SR > 100 µM | SNB-75 > 100 µM | SF-268 > 100 µM | SF-295 > 100 µM | RXF 393 > 100 µM | MDA-MB-231 > 100 µM | UACC-62 > 100 µM | K562 > 100 µM

COc1cc2c(cc1OC)CC(N=[N+]=[N-])c1cc(OC)c(OC)cc1/C=C\2 (stereo not given)
inactive: TK-10 > 100 µM | NCI-H226 3.18 µM | PC-3 30.8 µM | MOLT-4 41 µM | HT-29 44.5 µM | SN12C 68.5 µM | OVCAR-8 18.4 µM | NCI/ADR-RES 25.2 µM | T47D 75 µM | SR > 100 µM | SNB-75 16.6 µM | SF-268 51.8 µM | SF-295 31.8 µM | MDA-MB-231 30.8 µM | UACC-62 30 µM | LOX IMVI 40.6 µM | K562 27.2 µM

NC1=NNC2(C(N)=N1)c1ccccc1-c1ccccc12
inactive: TK-10 > 10 µM | NCI-H226 > 10 µM | PC-3 > 10 µM | MOLT-4 > 10 µM | HT-29 > 10 µM | SN12C > 10 µM | NCI-H23 > 10 µM | OVCAR-8 > 10 µM | NCI/ADR-RES > 10 µM | T47D > 10 µM | SR > 10 µM | SNB-75 > 10 µM | SF-268 > 10 µM | SF-295 > 10 µM | RXF 393 > 10 µM | MDA-MB-231 > 10 µM | UACC-62 > 10 µM | LOX IMVI > 10 µM

CC(=O)N1N=C(c2ccccc2Nc2ccccc2C2=NN(C(C)=O)C(c3ccccc3)O2)OC1c1ccccc1 (stereo not given)
inactive: TK-10 > 100 µM | NCI-H226 > 100 µM | PC-3 10.4 µM | MOLT-4 4.76 µM | HT-29 25.5 µM | SN12C > 100 µM | NCI-H23 60.7 µM | OVCAR-8 71.6 µM | NCI/ADR-RES 55.6 µM | T47D > 100 µM | SR > 100 µM | SF-295 32.8 µM | RXF 393 46.8 µM | MDA-MB-231 > 100 µM | UACC-62 35 µM | LOX IMVI 81.8 µM | K562 30.7 µM

COc1ccc2cc(C(=O)NCCc3ccccc3)ccc2c1OC
inactive: NCI-H226 63 µM | PC-3 91.2 µM | MOLT-4 > 100 µM | HT-29 67.6 µM | SN12C > 100 µM | NCI-H23 > 100 µM | OVCAR-8 79.6 µM | NCI/ADR-RES 84.3 µM | T47D 26.5 µM | SR 49.9 µM | SF-268 54.3 µM | SF-295 69.2 µM | RXF 393 30.5 µM | MDA-MB-231 33.6 µM | UACC-62 > 100 µM | LOX IMVI > 100 µM | K562 83.6 µM

NC(Cc1c[nH]c2ccccc12)P(=O)(O)O (stereo not given)
inactive: TK-10 > 100 µM | NCI-H226 > 100 µM | PC-3 > 100 µM | MOLT-4 > 100 µM | CCRF-CEM > 100 µM | HT-29 > 100 µM | SN12C > 100 µM | NCI-H23 > 100 µM | OVCAR-8 > 100 µM | NCI/ADR-RES > 100 µM | T47D > 100 µM | SR > 100 µM | SNB-75 > 100 µM | SF-268 > 100 µM | SF-295 > 100 µM | RXF 393 > 100 µM | MDA-MB-231 > 100 µM | UACC-62 > 100 µM | K562 > 100 µM

CCOC(=O)CN1C(=O)c2c(c(C)n(-c3ccccc3)c2C)C1=O
inactive: TK-10 > 100 µM | NCI-H226 > 100 µM | PC-3 > 100 µM | MOLT-4 > 100 µM | CCRF-CEM > 100 µM | HT-29 > 100 µM | SN12C > 100 µM | NCI-H23 > 100 µM | OVCAR-8 > 100 µM | NCI/ADR-RES > 100 µM | T47D > 100 µM | SR > 100 µM | SNB-75 82.8 µM | SF-268 > 100 µM | SF-295 > 100 µM | RXF 393 26 µM | MDA-MB-231 > 100 µM | UACC-62 > 100 µM | K562 > 100 µM

CCc1n[nH]c(=O)[nH]1
inactive: TK-10 > 100 µM | PC-3 > 100 µM | MOLT-4 > 100 µM | CCRF-CEM > 100 µM | HT-29 > 100 µM | SN12C > 100 µM | NCI-H23 > 100 µM | OVCAR-8 > 100 µM | NCI/ADR-RES > 100 µM | T47D > 100 µM | SR > 100 µM | SNB-75 > 100 µM | SF-268 > 100 µM | SF-295 > 100 µM | RXF 393 > 100 µM | MDA-MB-231 > 100 µM | UACC-62 > 100 µM | LOX IMVI > 100 µM | K562 > 100 µM
